US20170022201A1, “MACROCYLIC PYRIDINE DERIVATIVES” (Janssen Pharmaceutica NV, priority 2014, published 2017)

target: PIK3C3 lipid kinase (Homo sapiens, UniProt Q8NEB9); assay: Biochemical Vps34 lipid kinase assay (ADP-Glo); conditions: serial dilution 10 μM to 0.3 nM; 20 μM ATP; pIC50 = -log IC50 (M)
Method: A non-radiometric kinase assay (ADP-Glo™ Assay, Promega, Madison, Wi, USA) was used for measuring the kinase activity of the PIK3C3 lipid kinase. All kinase assays were performed in 96-well half-area microtiter plates in a 25 μl reaction volume. The reaction cocktail was pipetted in 3 steps in the following order: • 10 μl of ATP solution (in assay buffer, see below) • 5 μl of test sample in 5% DMSO 10 μl of enzyme/substrate mixture
All lipid kinase assays contained 50 mM HEPES (4-(2-hydroxyethyl)-1-piperazineethanesulfonic acid)—NaOH, pH 7.5, 1 mM EGTA ((ethylene glycol tetraacetic acid), 100 mM NaCl, 0.03% CHAPS (3-[(3-Cholamidopropyl) dimethylammonio]-1-propanesulfonate), 2 mM DTT (Dithiothreitol), 20 μM ATP (corresponding to the apparent ATP-Km), kinase (7.6 nM) and substrate (50 μM). The assay for PIK3C3 additionally contained 3 mM MnCl2.
The reaction cocktails were incubated at 30° C. for 60 minutes. The reaction was stopped with 25 μl ADP-Glo™ reagent per well. Plates were incubated for 40 minutes at room temperature, followed by addition of 50 μl kinase detection reagent per well and incubation for 60 minutes at room temperature. Signal was determined with a microplate luminescence reader (Victor, Perkin Elmer). The assay was either performed using a single dose of compound (1 μM final concentration in the assay reaction) with resulting data expressed as residual activity compared to control (DMSO), or using a serial (half-log) dilution of compounds starting at 10 μM and down to 0.3 nM (final concentrations in the assay) with data expressed as the pIC50.

Sequence of PIK3C3 lipid kinase (Q8NEB9 whole entry): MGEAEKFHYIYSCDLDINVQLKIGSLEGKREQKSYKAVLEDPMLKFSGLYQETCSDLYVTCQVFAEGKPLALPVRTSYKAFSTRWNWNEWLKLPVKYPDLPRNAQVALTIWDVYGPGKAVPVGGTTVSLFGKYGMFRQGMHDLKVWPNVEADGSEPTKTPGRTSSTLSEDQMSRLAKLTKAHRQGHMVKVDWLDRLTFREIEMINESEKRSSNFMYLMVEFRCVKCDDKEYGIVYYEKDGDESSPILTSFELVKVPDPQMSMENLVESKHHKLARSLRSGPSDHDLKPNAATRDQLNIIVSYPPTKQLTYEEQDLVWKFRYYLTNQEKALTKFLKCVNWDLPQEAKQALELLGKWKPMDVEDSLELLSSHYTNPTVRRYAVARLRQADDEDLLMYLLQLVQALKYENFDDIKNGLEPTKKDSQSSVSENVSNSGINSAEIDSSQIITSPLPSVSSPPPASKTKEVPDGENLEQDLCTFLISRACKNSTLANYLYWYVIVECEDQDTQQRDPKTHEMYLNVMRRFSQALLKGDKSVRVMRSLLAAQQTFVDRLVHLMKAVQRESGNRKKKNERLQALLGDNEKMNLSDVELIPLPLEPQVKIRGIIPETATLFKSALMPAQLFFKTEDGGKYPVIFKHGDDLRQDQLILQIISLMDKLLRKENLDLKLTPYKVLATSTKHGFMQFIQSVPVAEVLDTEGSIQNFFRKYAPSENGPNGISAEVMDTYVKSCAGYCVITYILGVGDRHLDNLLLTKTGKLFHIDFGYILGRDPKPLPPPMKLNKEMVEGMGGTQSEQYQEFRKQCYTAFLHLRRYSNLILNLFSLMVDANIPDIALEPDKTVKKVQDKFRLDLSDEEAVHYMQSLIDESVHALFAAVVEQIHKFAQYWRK

IC50 [M]	SMILES
1.66e-07	O=C1CN2CCN(Cc3cccc(c3)Nc3cc(ccn3)-c3cnc(nc3)NCCCN1)C(CO)C2 (single isomer, unassigned) [Compound 8]
1.74e-06	CC1c2cccc(c2)Nc2cc(ccn2)-c2cnc(nc2)NCCCNC(=O)C2(CC2)N2CCN1CC2 (single isomer, unassigned) [Compound 23]
6.03e-07	O=C1CN2CC3CCC2CN3Cc2cccc(c2)Nc2cc(ccn2)-c2cnc(nc2)NCCCN1 (single isomer, unassigned) [Compound 25]
1.95e-07	CC1c2cccc(c2)Nc2cc(ccn2)-c2cnc(nc2)N2CC(O)CC2CCNC(=O)C2(CC2)N2CCN1CC2 (single isomer, unassigned) [Compound 65]
1.12e-06	CC1c2cccc(c2)Nc2cc(ccn2)-c2cnc(nc2)N2CC(O)CC2CCNC(=O)C2(CC2)N2CCN1CC2 (single isomer, unassigned) [Compound 66]
2.14e-06	O=C1CN2CCN(CC2)Cc2cccc(c2)Nc2cc(ccn2)-c2ccc(nc2)N2CCCC2CCN1 (single isomer, unassigned) [Compound 143]
4.9e-08	O=C1CN2CCN(CC2)Cc2cccc(c2F)Nc2cc(ccn2)-c2cnc(nc2)NCCCN1 [Compound 1]
5.13e-07	NCCCOCC1CN2CCN1Cc1cccc(c1)Nc1cc(ccn1)-c1cnc(nc1)NCCCNC(=O)C2 (stereo not shown) [Compound 114]
9.33e-08	NCCCOCC1CN2CCN1Cc1cccc(c1)Nc1cc(ccn1)-c1cnc(nc1)NCCCNC(=O)C2 (stereo not shown) [Compound 148]

same assay, conditions: single dose 1 μM; residual activity compared to control (DMSO); 20 μM ATP

VPS34_1microM_%ofcntrl [%]	SMILES
9.64	O=C1CN2CCN(Cc3cccc(c3)Nc3cc(ccn3)-c3cnc(nc3)NCCCN1)C(CO)C2 (single isomer, unassigned) [Compound 8]
29.15	NCCCOCC1CN2CCN1Cc1cccc(c1)Nc1cc(ccn1)-c1cnc(nc1)NCCCNC(=O)C2 (stereo not shown) [Compound 114]
9.53	NCCCOCC1CN2CCN1Cc1cccc(c1)Nc1cc(ccn1)-c1cnc(nc1)NCCCNC(=O)C2 (stereo not shown) [Compound 148]

target: T1, EF2K (Homo sapiens, UniProt O00418); assay: Biochemical EF2K lysate-based kinase assay (AlphaLISA p-eEF2 Thr56); conditions: LN-229 cell lysates, 10 mM ATP, pH 6.6; pIC50 = -log IC50 (M); read-out: eEF2K_C_alphalisa pIC50 (converted)
T1 construct: host or cells: LN-229 glioblastoma cell lysate
T1 sequence (O00418 1-725): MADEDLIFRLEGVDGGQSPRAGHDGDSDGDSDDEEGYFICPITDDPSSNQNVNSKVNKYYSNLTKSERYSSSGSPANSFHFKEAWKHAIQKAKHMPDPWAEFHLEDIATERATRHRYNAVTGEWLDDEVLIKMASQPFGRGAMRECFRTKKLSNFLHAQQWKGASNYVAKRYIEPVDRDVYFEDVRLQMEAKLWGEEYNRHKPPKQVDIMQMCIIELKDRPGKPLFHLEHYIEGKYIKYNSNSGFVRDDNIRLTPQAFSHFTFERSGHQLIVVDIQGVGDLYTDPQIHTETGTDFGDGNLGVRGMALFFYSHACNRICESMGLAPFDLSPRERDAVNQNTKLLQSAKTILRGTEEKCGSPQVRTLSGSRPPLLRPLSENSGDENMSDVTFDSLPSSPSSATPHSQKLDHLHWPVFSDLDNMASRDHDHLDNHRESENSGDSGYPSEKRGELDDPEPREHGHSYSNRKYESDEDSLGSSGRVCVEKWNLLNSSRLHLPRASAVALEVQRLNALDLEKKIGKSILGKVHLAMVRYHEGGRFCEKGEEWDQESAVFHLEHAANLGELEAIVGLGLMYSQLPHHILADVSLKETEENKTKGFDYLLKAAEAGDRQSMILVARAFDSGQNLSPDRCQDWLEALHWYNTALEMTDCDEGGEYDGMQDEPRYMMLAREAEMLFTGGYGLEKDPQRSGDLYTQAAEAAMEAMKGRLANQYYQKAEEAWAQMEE
Text: LN-229 cells were purchased from ATCC (CRL-2611); these are glioblastoma cells. Cell lysates from LN229 were used in this kinase assay to provide both the kinase and the substrate (EF2). The AlphaLISA p-eEF2 (Thr56) detection assay was developed using a sandwich assay format with two specific antibodies recognizing different epitopes of the target, including one antibody against the phosphorylation site of interest. One anti-eEF2 antibody was conjugated onto AlphaLISA Acceptor beads, while the second antibody was biotinylated and captured by streptavidin coated Donor beads.
Compound was mixed with LN-229 cell lysates in the presence of a kinase buffer (e.g. HEPES) at a pH of 6.6, containing 10 mM Mg^2+ (e.g. magnesium acetate) and 10 mM adenosine-tri-phosphate (ATP) and incubated at room temperature for 15 minutes. The kinase reaction was stopped with excess ethylenediaminetetraacetic acid disodium salt and the biotinylated-anti phospho eEF2 antibody (3 nM) was added for 1 hour. Then the anti-EF2 acceptor beads (10 μg/ml) as well as the streptavidin coated donor beads (20 μg/ml) were added for 1 hour, and the AlphaLISA signal was measured in an Envision instrument once, left overnight, and measured again for the final read.

IC50 [M]	SMILES
4.17e-08	O=C1CN2CCN(Cc3cccc(c3)Nc3cc(ccn3)-c3cnc(nc3)NCCCN1)C(CO)C2 (single isomer, unassigned) [Compound 8]
9.55e-08	CC1c2cccc(c2)Nc2cc(ccn2)-c2cnc(nc2)NCCCNC(=O)C2(CC2)N2CCN1CC2 (single isomer, unassigned) [Compound 23]
2.34e-06	O=C1CN2CC3CCC2CN3Cc2cccc(c2)Nc2cc(ccn2)-c2cnc(nc2)NCCCN1 (single isomer, unassigned) [Compound 25]
5.62e-09	CC1c2cccc(c2)Nc2cc(ccn2)-c2cnc(nc2)N2CC(O)CC2CCNC(=O)C2(CC2)N2CCN1CC2 (single isomer, unassigned) [Compound 65]
6.17e-08	CC1c2cccc(c2)Nc2cc(ccn2)-c2cnc(nc2)N2CC(O)CC2CCNC(=O)C2(CC2)N2CCN1CC2 (single isomer, unassigned) [Compound 66]
1.38e-05	O=C1CN2CCN(CC2)Cc2cccc(c2)Nc2cc(ccn2)-c2ccc(nc2)N2CCCC2CCN1 (single isomer, unassigned) [Compound 143]
1.05e-08	O=C1CN2CCN(CC2)Cc2cccc(c2F)Nc2cc(ccn2)-c2cnc(nc2)NCCCN1 [Compound 1]

target: T2, eEF2K (Homo sapiens, UniProt O00418); assay: EF2K cell-based assay (P-EF2 AlphaLISA, 2-deoxyglucose stimulated MCF10A cells); conditions: 2.5 mM 2-deoxyglucose 4 h, phosphorylation of EF2 at Thr 56, pIC50 = -log IC50 (M)
T2 construct: in the immortalized epithelial breast cell lines, MCF10A; host or cells: MCF10A immortalized breast epithelial cells
T2 sequence (O00418 1-725): T1 sequence (O00418 1-725)
Method: In this assay, 2.5 mM 2-deoxyglucose was used to deplete intracellular ATP and activate 5′ adenosine monophosphate-activated protein kinase (AMPK) in the immortalized epithelial breast cell lines, MCF10A. MCF 10A cells were purchased from ATCC (CRL-10317).
MCF10A cells are seeded at a density of 1.25×10^5 Cells/ml at 100 μl/well in a 96-well plate and incubated for 24 hours (37° C., 5% CO2). Compound is added for 1 hour, and cell are stimulated with 2.5 mM of 2-deoxy-glucose for 4 hours. Medium is then removed, and cells are lysed in an ice-cold buffer M-PER (Thermo Scientific, 78501), containing protease and phosphatase inhibitors. P-EF2 levels are determined in these lysates using the P-EF2 AlphaLISA described above.

eEF2K_C_PThr56 pIC50	SMILES
<5	NCCCOCC1CN2CCN1Cc1cccc(c1)Nc1cc(ccn1)-c1cnc(nc1)NCCCNC(=O)C2 (stereo not shown) [Compound 148]

same assay, conditions: 2.5 mM 2-deoxyglucose 4 h, phosphorylation of EF2 at Thr 56, pIC50 = -log IC50 (M), read-out: eEF2K_C_PThr56 pIC50 (converted)

IC50 [M]	SMILES
2.57e-06	O=C1CN2CCN(Cc3cccc(c3)Nc3cc(ccn3)-c3cnc(nc3)NCCCN1)C(CO)C2 (single isomer, unassigned) [Compound 8]
~2.95e-06	CC1c2cccc(c2)Nc2cc(ccn2)-c2cnc(nc2)NCCCNC(=O)C2(CC2)N2CCN1CC2 (single isomer, unassigned) [Compound 23]
> 1e-05	O=C1CN2CC3CCC2CN3Cc2cccc(c2)Nc2cc(ccn2)-c2cnc(nc2)NCCCN1 (single isomer, unassigned) [Compound 25]
3.8e-07	CC1c2cccc(c2)Nc2cc(ccn2)-c2cnc(nc2)N2CC(O)CC2CCNC(=O)C2(CC2)N2CCN1CC2 (single isomer, unassigned) [Compound 65]
9.12e-07	CC1c2cccc(c2)Nc2cc(ccn2)-c2cnc(nc2)N2CC(O)CC2CCNC(=O)C2(CC2)N2CCN1CC2 (single isomer, unassigned) [Compound 66]
> 3.02e-05	O=C1CN2CCN(CC2)Cc2cccc(c2)Nc2cc(ccn2)-c2ccc(nc2)N2CCCC2CCN1 (single isomer, unassigned) [Compound 143]
3.63e-07	O=C1CN2CCN(CC2)Cc2cccc(c2F)Nc2cc(ccn2)-c2cnc(nc2)NCCCN1 [Compound 1]
> 1e-05	NCCCOCC1CN2CCN1Cc1cccc(c1)Nc1cc(ccn1)-c1cnc(nc1)NCCCNC(=O)C2 (stereo not shown) [Compound 114]
